Test results published in US20050037436A1, “Test systems and the use thereof for identifying and characterizing compounds” (priority 2000, published 2005).

How the values were obtained:
[1] = biological target: T1, mouse β2-adrenergic receptor (Mus musculus, UniProt P18762); assay: Ca2+ imaging of HEK-293 cells transfected with β2-R-GFP (control); type: cell-based; details: BAY 44-4400 present
T1 construct: was fused with a C-terminal EGFP tag by amplifying the full-length cDNA with the P117 mouse 2AR XhoI 5′ primer; expressed in transfected cells; host or cells: HEK-293, transient (pEGFP-N3)
Procedure: (§1) The intracellular free Ca^2+ concentration [Ca^2+]i was measured in COS-7 and HEK293 cells transiently transfected with the HC110-R-EGFP or β2-AR-EGFP construct using the calcium imaging method (see also FIG. 11). In each case 2×10^5 COS-7 and HEK293 cells were applied to a 42 mm cover glass coated with 1% gelatine in 55 mm tissue culture dishes with 5 ml of DMEM medium (with 10% FCS and pen/strep). The transfection took place with the aid of the non-liposomal transfection reagent FuGENE 6 (Roche Molecular Biochemicals, Mannheim). […] Constructs of the HC110-R full-length clone with a GFP tag fused in the correct reading frame, and the complete cDNA of the β2-adrenergic receptor which had likewise been provided with a GFP tag at the 3′ end, were transfected.
After the incubation, the cells loaded with Fura-2/AM were examined under an inverted microscope (Zeiss, Axiovert, Germany) and, in parallel with this, in a digital imaging fluorescence microscope (PTI) and differentiated into transfected and untransfected cells at a wavelength of 440 and 490 nm respectively. On average, 5-7 transfected and non transfected cells were selected by fixing an ROI (region of interest). The extinction was measured at 340 nm (calcium-bound Fura-2/AM) and 380 nm (free Fura-2/AM), and the emission was measured at 510 nm. Evaluation took place using the Image Master 1.x software by forming the quotient of 340:510 nm, 380:510 nm and the ratio of 340/380:510 nm (background corrected images) as a function of the agent added.
Agents were always added 6 min after starting the measurement by removing an appropriate volume of Na^+ HBS buffer and pipetting the agent directly into the sample vessel for a further 30 to 50 min. The total volume in the sample vessel was constant at 1.5 ml throughout the experiment. […] Addition of CdCl2 and nifedipine took place immediately at the start of the experiment and before addition of α-LTX, and EGTA was added both at the start of the experiment and 4 min after the addition of α-LTX. […]
The data were analyzed using the Excel 98 table calculation programme. […]

[2] = system: untransfected HEK-293 cells; assay: Ca2+ imaging of untransfected or GFP-transfected HEK-293 cells (control); type: cell-based, human
Procedure: as §1, with “transfected. […]” for “transfected.”
Loading of the cells with 1 μM Fura-2/acetoxymethyl ester (Fura-2/AM) (Sigma, Deisenhofen) took place 48 h after the transfection in an Na^+-HBS solution (150 mM NaCl; 5.4 mM KCl; 1.8 mM CaCl2; 0.8 mM MgSO4 7H2O; 20 mM glucose; 20 mM Hepes in H2O, pH 7.3) at 37° C., 5% CO2 and 95% humidity for 30 min. After the incubation, the cells loaded with Fura-2/AM were examined under an inverted microscope (Zeiss, Axiovert, Germany) and, in parallel with this, in a digital imaging fluorescence microscope (PTI) and differentiated into transfected and untransfected cells at a wavelength of 440 and 490 nm respectively. […]

T1 sequence (P18762 whole entry, the tested form may be a part): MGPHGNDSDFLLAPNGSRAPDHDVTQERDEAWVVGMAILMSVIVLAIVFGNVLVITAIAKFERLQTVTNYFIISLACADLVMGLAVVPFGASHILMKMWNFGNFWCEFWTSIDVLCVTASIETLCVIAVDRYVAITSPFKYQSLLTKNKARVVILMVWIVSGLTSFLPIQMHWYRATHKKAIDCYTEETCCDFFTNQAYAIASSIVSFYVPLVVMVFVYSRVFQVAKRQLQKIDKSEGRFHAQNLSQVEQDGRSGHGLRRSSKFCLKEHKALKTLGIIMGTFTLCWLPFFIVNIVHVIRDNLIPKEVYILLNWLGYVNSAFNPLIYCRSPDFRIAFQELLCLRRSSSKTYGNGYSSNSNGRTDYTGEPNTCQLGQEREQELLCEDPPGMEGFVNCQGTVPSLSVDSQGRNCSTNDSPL

## CC(C)C[C@H]1C(=O)O[C@H](Cc2ccc(N3CCOCC3)cc2)C(=O)N(C)[C@@H](CC(C)C)C(=O)O[C@H](C)C(=O)N(C)[C@@H](CC(C)C)C(=O)O[C@H](Cc2ccc(N3CCOCC3)cc2)C(=O)N(C)[C@@H](CC(C)C)C(=O)O[C@H](C)C(=O)N1C [BAY44-4400, cyclo(-D-Lac-L-MeLeu-D-p-morpholinyl-PhLac-L-MeLeu-)]
[1]
  effect on isoproterenol-induced Ca2+ increase: does not interfere with the isoproterenol-induced signal transmission
[1]; listed as BAY 44-4400
  effect on isoproterenol-induced Ca2+ increase: unaffected by BAY 44-4400
[2]
  changes caused by substance: causes no changes in untransfected cells
